Assay results from patent US12565505B2, “mTORC modulators and uses thereof” (Aeovian Pharmaceuticals, Inc., priority 2019, dated 2026).

Tests used:
[1] = biological target: T1, mTORC2 (Homo sapiens, UniProt P42345+P62942); experiment: Inhibition assay for mTORC2: phosphorylation of pAkt at Ser473, AlphaLISA SureFire in PC3 cells; type: cell-based; settings: PC3 cells, 24 hours treatment, analogs substituted at C40 and C16 (C16 diastereomer mixtures not isolated), read-out: pIC50 mTORC2 (converted)
T1 construct: endogenous in cells; host or cells: PC3 cells (human prostate adenocarcinoma)
Summary of the method: (§1)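 Human prostate adenocarcinoma PC3 cells treated with compounds for 24 h. AlphaLISA SureFire read-out of pS6K Thr389 for mTORC1 and pAkt Ser473 for mTORC2, from which IC50s were derived.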

[2] = biological target: T2, mTORC1 (Homo sapiens, UniProt P42345+P62942); experiment: Inhibition assay for mTORC1: phosphorylation of pS6K at Thr389, AlphaLISA SureFire in PC3 cells; type: cell-based; settings: PC3 cells, 24 hours treatment, pS6K Thr389; analogs substituted at C40 and C16 (C16 diastereomer mixtures not isolated); read-out: pIC50 mTORC1 (converted)
T2 construct: endogenous in cells; host or cells: PC3 cells (human prostate adenocarcinoma)
Summary of the method: as §1

Row | Structure (SMILES) | IC50 [1] [µM] | IC50 [2] [µM]
1 | COCCOC1C[C@@H]2CC[C@@H](C)[C@@](O)(O2)C(=O)C(=O)N2CCCCC2C(=O)O[C@H]([C@H](C)C[C@@H]2CC[C@@H](OCCOC)[C@H](OC)C2)CC(=O)[C@H](C)/C=C(\C)[C@@H](O)[C@@H](OC)C(=O)[C@H](C)C[C@H](C)/C=C/C=C/C=C/1C (some centres unmarked) [Compound 29] | > 10 | < 0.000316
2 | COCCOC1C[C@@H]2CC[C@@H](C)[C@@](O)(O2)C(=O)C(=O)N2CCCCC2C(=O)O[C@H]([C@H](C)C[C@@H]2CC[C@@H](OC(=O)NCCN3CCOCC3)[C@H](OC)C2)CC(=O)[C@H](C)/C=C(\C)[C@@H](O)[C@@H](OC)C(=O)[C@H](C)C[C@H](C)/C=C/C=C/C=C/1C (some centres unmarked) [Compound 30] | 1 to 10 | < 0.000316
3 | CO[C@@H]1C[C@H](C[C@@H](C)[C@@H]2CC(=O)[C@H](C)/C=C(\C)[C@@H](O)[C@@H](OC)C(=O)[C@H](C)C[C@H](C)/C=C/C=C/C=C(\C)C(OCCc3ccccc3)C[C@@H]3CC[C@@H](C)[C@@](O)(O3)C(=O)C(=O)N3CCCCC3C(=O)O2)CC[C@H]1OC(=O)NCCN1CCCCC1 (some centres unmarked) [Compound 113] | < 1 | < 0.000316
4 | CO[C@@H]1C[C@H](C[C@@H](C)[C@@H]2CC(=O)[C@H](C)/C=C(\C)[C@@H](O)[C@@H](OC)C(=O)[C@H](C)C[C@H](C)/C=C/C=C/C=C(\C)C(OC(C)C)C[C@@H]3CC[C@@H](C)[C@@](O)(O3)C(=O)C(=O)N3CCCCC3C(=O)O2)CC[C@H]1OC(=O)NCCc1ccccc1 (some centres unmarked) [Compound 80] | > 10 | 0.000316 to 0.00316
5 | CO[C@@H]1C[C@H](C[C@@H](C)[C@@H]2CC(=O)[C@H](C)/C=C(\C)[C@@H](O)[C@@H](OC)C(=O)[C@H](C)C[C@H](C)/C=C/C=C/C=C(\C)C(OCCO)C[C@@H]3CC[C@@H](C)[C@@](O)(O3)C(=O)C(=O)N3CCCCC3C(=O)O2)CC[C@H]1OC(=O)NCCO (some centres unmarked) [Compound 64] | > 10 | 0.000316 to 0.00316
6 | CO[C@@H]1C[C@H](C[C@@H](C)[C@@H]2CC(=O)[C@H](C)/C=C(\C)[C@@H](O)[C@@H](OC)C(=O)[C@H](C)C[C@H](C)/C=C/C=C/C=C(\C)C(OCCO)C[C@@H]3CC[C@@H](C)[C@@](O)(O3)C(=O)C(=O)N3CCCCC3C(=O)O2)CC[C@H]1OC(=O)N(C)CCO (some centres unmarked) [Compound 83] | 1 to 10 | 0.000316 to 0.00316
7 | CO[C@@H]1C[C@H](C[C@@H](C)[C@@H]2CC(=O)[C@H](C)/C=C(\C)[C@@H](O)[C@@H](OC)C(=O)[C@H](C)C[C@H](C)/C=C/C=C/C=C(\C)C(OCC(C)(C)O)C[C@@H]3CC[C@@H](C)[C@@](O)(O3)C(=O)C(=O)N3CCCCC3C(=O)O2)CC[C@H]1OCCO (some centres unmarked) [Compound 91] | 1 to 10 | 0.000316 to 0.00316
8 | COCCOC1C[C@@H]2CC[C@@H](C)[C@@](O)(O2)C(=O)C(=O)N2CCCCC2C(=O)O[C@H]([C@H](C)C[C@@H]2CC[C@@H](OCCCN3CCC(O)CC3)[C@H](OC)C2)CC(=O)[C@H](C)/C=C(\C)[C@@H](O)[C@@H](OC)C(=O)[C@H](C)C[C@H](C)/C=C/C=C/C=C/1C (some centres unmarked) [Compound 85] | 1 to 10 | 0.000316 to 0.00316
9 | CO[C@@H]1C[C@H](C[C@@H](C)[C@@H]2CC(=O)[C@H](C)/C=C(\C)[C@@H](O)[C@@H](OC)C(=O)[C@H](C)C[C@H](C)/C=C/C=C/C=C(\C)C(OCCc3ccccc3)C[C@@H]3CC[C@@H](C)[C@@](O)(O3)C(=O)C(=O)N3CCCCC3C(=O)O2)CC[C@H]1OC(=O)N(C)CCN(C)C (some centres unmarked) [Compound 109] | < 1 | < 0.000316
10 | COCCOC1C[C@@H]2CC[C@@H](C)[C@@](O)(O2)C(=O)C(=O)N2CCCCC2C(=O)O[C@H]([C@H](C)C[C@@H]2CC[C@@H](OC)[C@H](OC)C2)CC(=O)[C@H](C)/C=C(\C)[C@@H](O)[C@@H](OC)C(=O)[C@H](C)C[C@H](C)/C=C/C=C/C=C/1C (some centres unmarked) [Compound 11] | > 10 | < 0.000316
11 | COCCOC1C[C@@H]2CC[C@@H](C)[C@@](O)(O2)C(=O)C(=O)N2CCCCC2C(=O)O[C@H]([C@H](C)C[C@@H]2CC[C@@H](OCCCN3CCC[C@H](O)C3)[C@H](OC)C2)CC(=O)[C@H](C)/C=C(\C)[C@@H](O)[C@@H](OC)C(=O)[C@H](C)C[C@H](C)/C=C/C=C/C=C/1C (some centres unmarked) [Compound 54] | 1 to 10 | < 0.000316
12 | CO[C@@H]1C[C@H](C[C@@H](C)[C@@H]2CC(=O)[C@H](C)/C=C(\C)[C@@H](O)[C@@H](OC)C(=O)[C@H](C)C[C@H](C)/C=C/C=C/C=C(\C)C(OCCO)C[C@@H]3CC[C@@H](C)[C@@](O)(O3)C(=O)C(=O)N3CCCCC3C(=O)O2)CC[C@H]1OC(=O)NCCN1CCN(C)CC1 (some centres unmarked) [Compound 76] | > 10 | 0.000316 to 0.00316
13 | COCCOC1C[C@@H]2CC[C@@H](C)[C@@](O)(O2)C(=O)C(=O)N2CCCCC2C(=O)O[C@H]([C@H](C)C[C@@H]2CC[C@@H](OCCCCN3CCOCC3)[C@H](OC)C2)CC(=O)[C@H](C)/C=C(\C)[C@@H](O)[C@@H](OC)C(=O)[C@H](C)C[C@H](C)/C=C/C=C/C=C/1C (some centres unmarked) [Compound 56] | 1 to 10 | < 0.000316
14 | CO[C@@H]1C[C@H](C[C@@H](C)[C@@H]2CC(=O)[C@H](C)/C=C(\C)[C@@H](O)[C@@H](OC)C(=O)[C@H](C)C[C@H](C)/C=C/C=C/C=C(\C)C(OCCO)C[C@@H]3CC[C@@H](C)[C@@](O)(O3)C(=O)C(=O)N3CCCCC3C(=O)O2)CC[C@H]1OC(=O)NCCN1CCCCC1 (some centres unmarked) [Compound 72] | > 10 | 0.000316 to 0.00316
15 | CO[C@@H]1C[C@H](C[C@@H](C)[C@@H]2CC(=O)[C@H](C)/C=C(\C)[C@@H](O)[C@@H](OC)C(=O)[C@H](C)C[C@H](C)/C=C/C=C/C=C(\C)C(OCCO)C[C@@H]3CC[C@@H](C)[C@@](O)(O3)C(=O)C(=O)N3CCCCC3C(=O)O2)CC[C@H]1OCCCN1CCOCC1 (stereo partly drawn) [Compound 55, (1R,9S,12SR,15R,16E,18R,19R,21R,23S,24E,26E,28E,32S,35R)-1,18-dihydroxy-30-(2-hydroxyethoxy)-19-methoxy-12-[(1R)-2-[(1S,3R,4R)-3-methoxy-4-(3-morpholinopropoxy)cyclohexyl]-1-methyl-ethyl]-15,17,21,23,29,35-hexamethyl-11,36-dioxa-4-azatricyclo[30.3.1.0^4,9]hexatriaconta-16,24,26,28-tetraene-2,3,10,14,20-pentone] | 1 to 10 | < 0.000316

Further lines, results first:

Row | IC50 [1] [µM] | IC50 [2] [µM] | Structure (SMILES)
16 | < 1 | < 0.000316 | CO[C@@H]1C[C@H](C[C@@H](C)[C@@H]2CC(=O)[C@H](C)/C=C(\C)[C@@H](O)[C@@H](OC)C(=O)[C@H](C)C[C@H](C)/C=C/C=C/C=C(\C)C(OCCc3ccccc3)C[C@@H]3CC[C@@H](C)[C@@](O)(O3)C(=O)C(=O)N3CCCCC3C(=O)O2)CC[C@H]1OC(=O)N(C)CCO (some centres unmarked) [Compound 105]
17 | 1 to 10 | < 0.000316 | CO[C@@H]1C[C@H](C[C@@H](C)[C@@H]2CC(=O)[C@H](C)/C=C(\C)[C@@H](O)[C@@H](OC)C(=O)[C@H](C)C[C@H](C)/C=C/C=C/C=C(\C)C(OCCCCO)C[C@@H]3CC[C@@H](C)[C@@](O)(O3)C(=O)C(=O)N3CCCC[C@H]3C(=O)O2)CC[C@H]1OCCCO (mixture of isomers) [Compound 68]
18 | 1 to 10 | < 0.000316 | CO[C@@H]1C[C@H](C[C@@H](C)[C@@H]2CC(=O)[C@H](C)/C=C(\C)[C@@H](O)[C@@H](OC)C(=O)[C@H](C)C[C@H](C)/C=C/C=C/C=C(\C)C(OCCCCO)C[C@@H]3CC[C@@H](C)[C@@](O)(O3)C(=O)C(=O)N3CCCCC3C(=O)O2)CC[C@H]1OCCO (some centres unmarked) [Compound 63]
19 | < 1 | < 0.000316 | CO[C@@H]1C[C@H](C[C@@H](C)[C@@H]2CC(=O)[C@H](C)/C=C(\C)[C@@H](O)[C@@H](OC)C(=O)[C@H](C)C[C@H](C)/C=C/C=C/C=C(\C)C(OCCc3ccccc3)C[C@@H]3CC[C@@H](C)[C@@](O)(O3)C(=O)C(=O)N3CCCCC3C(=O)O2)CC[C@H]1OC(=O)NCCO (stereo partly drawn) [Compound 111, [(1R,2R,4S)-4-[(2R)-2-[(1R,9S,12S,15R,16E,18R,19R,21R,23S,24E,26E,28E,32S,35R)-1,18-dihydroxy-19-methoxy-15,17,21,23,29,35-hexamethyl-2,3,10,14,20-pentaoxo-30-(2-phenylethoxy)-11,36-dioxa-4-azatricyclo[30.3.1.0^4,9]hexatriaconta-16,24,26,28-tetraen-12-yl]propyl]-2-methoxy-cyclohexyl] N-(2-hydroxyethyl)carbamate]
20 | > 10 | 0.000316 to 0.00316 | CO[C@@H]1C[C@H](C[C@@H](C)[C@@H]2CC(=O)[C@H](C)/C=C(\C)[C@@H](O)[C@@H](OC)C(=O)[C@H](C)C[C@H](C)/C=C/C=C/C=C(\C)C(OCCO)C[C@@H]3CC[C@@H](C)[C@@](O)(O3)C(=O)C(=O)N3CCCCC3C(=O)O2)CC[C@H]1OCCCc1ccccc1 (some centres unmarked) [Compound 38]
21 | 1 to 10 | < 0.000316 | CO[C@@H]1C[C@H](C[C@@H](C)[C@@H]2CC(=O)[C@H](C)/C=C(\C)[C@@H](O)[C@@H](OC)C(=O)[C@H](C)C[C@H](C)/C=C/C=C/C=C(\C)C(OCCc3ccccc3)C[C@@H]3CC[C@@H](C)[C@@](O)(O3)C(=O)C(=O)N3CCCCC3C(=O)O2)CC[C@H]1OCCCO (stereo partly drawn) [Compound 94, (1R,9S,12SR,15R,16E,18R,19R,21R,23S,24E,26E,28E,32S,35R)-1,18-dihydroxy-12-[(1R)-2-[(1S,3R,4R)-4-(3-hydroxypropoxy)-3-methoxy-cyclohexyl]-1-methyl-ethyl]-19-methoxy-15,17,21,23,29,35-hexamethyl-30-(2-phenylethoxy)-11,36-dioxa-4-azatricyclo[30.3.1.0^4,9]hexatriaconta-16,24,26,28-tetraene-2,3,10,14,20-pentone]
22 | 1 to 10 | < 0.000316 | CO[C@@H]1C[C@H](C[C@@H](C)[C@@H]2CC(=O)[C@H](C)/C=C(\C)[C@@H](O)[C@@H](OC)C(=O)[C@H](C)C[C@H](C)/C=C/C=C/C=C(\C)C(OCCc3ccccc3)C[C@@H]3CC[C@@H](C)[C@@](O)(O3)C(=O)C(=O)N3CCCCC3C(=O)O2)CC[C@H]1OCCO (some centres unmarked) [Compound 99]
